Patent US20230138395A1, “PHARMACEUTICAL COMPOSITIONS OF A THERAPEUTIC POLYENE MACROLIDE AND METHODS OF THEIR USE” (priority 2020, published 2023)
Converted amounts (≈) assume the structure as drawn. “And” between values parts separate entries of the source, which are not always exact repeats. Equal entries are not always repeated.

Experiments:
[1] = tested on: Candida albicans; assay: MIC testing (CLSI M27-A3); assay type: cell-based; design: MIC: unit not given beside the values; conditions: for MIC Range: in µg/mL
[2] = tested on: Candida albicans; assay: MFC determination; assay type: cell-based
[3] = tested on: C. krusei strains; assay: MFC determination; assay type: cell-based
[4] = tested on: C. parapsilosis; assay: MIC testing (CLSI M27-A3); assay type: cell-based; design: MIC: unit not given beside the values
[5] = tested on: C. parapsilosis; assay: MFC determination; assay type: cell-based
[6] = tested on: C. tropicalis; assay: MFC determination; assay type: cell-based; conditions: C. tropicalis
[7] = tested on: all Candida strains; assay: MIC testing (CLSI M27-A3), summary; assay type: cell-based
[8] = tested on: all Candida strains; assay: MFC determination, summary; assay type: cell-based
[9] = tested on: Cr. neoformans strains; assay: MIC testing (CLSI M27-A3, YNB, 72 h); assay type: cell-based, Cryptococcus neoformans
[10] = tested on: Cr. neoformans strains; assay: MFC determination; assay type: cell-based, Cryptococcus neoformans; conditions: Cr. neoformans
[11] = tested on: individual Aspergillus spp. (Table 12, species not named); assay: MIC testing (CLSI M38-A2), Table 12; assay type: cell-based; conditions: Aspergillus sp. of Table 12, caspofungin read as MEC
[12] = tested on: individual Aspergillus spp. (Table 13, species not given); assay: MIC testing (CLSI M38-A2), Table 13; assay type: cell-based; conditions: Aspergillus sp. of Table 13, caspofungin read as MEC
[13] = tested on: individual Aspergillus spp. (Table 13, species not given); assay: MFC determination, Table 13; assay type: cell-based; conditions: Aspergillus sp. of Table 13
[14] = tested on: individual Aspergillus spp. (Table 14, species not named); assay: MIC testing (CLSI M38-A2), Table 14; assay type: cell-based; conditions: Aspergillus sp. of Table 14, caspofungin read as MEC
[15] = tested on: individual Aspergillus spp. (Table 15, species not named); assay: MIC testing (CLSI M38-A2), Table 15; assay type: cell-based; conditions: Aspergillus sp. of Table 15, caspofungin read as MEC
[16] = tested on: individual Aspergillus spp. (Table 15, species not named); assay: MFC determination, Table 15; assay type: cell-based; conditions: Aspergillus sp. of Table 15
[17] = tested on: all Aspergillus strains tested; assay: MFC determination, summary; assay type: cell-based
[18] = tested on: Fusarium strains; assay: MIC testing (CLSI M38-A2), Table 17; assay type: cell-based, Fusarium spp.; conditions: Fusarium strains (Table 17)
[19] = tested on: Fusarium strains; assay: MFC determination, Table 17; assay type: cell-based, Fusarium spp.; conditions: Fusarium strains (Table 17)
[20] = tested on: Fusarium strains (Table 18); assay: MFC determination, Table 18; assay type: cell-based, Fusarium spp.
[21] = tested on: Penicillium strains; assay: MIC testing (CLSI M38-A2); assay type: cell-based, Penicillium spp.; conditions: Penicillium
[22] = tested on: Penicillium strains; assay: MFC determination; assay type: cell-based, Penicillium spp.
[23] = tested on: A. fumigatus AF91; assay: In vitro activity (MIC) against the infecting strain, Example 17; assay type: cell-based, Aspergillus fumigatus; conditions: Aspergillus fumigatus, minimum effective concentration, read-out: MIC read as MEC
Method: Minimum Inhibitory Concentration: MIC testing was performed according to the Clinical and Laboratory Standards Institute (CLSI) M27-A3 and M38-A2 standards for the susceptibility testing of yeasts and filamentous fungi, respectively (Cryptococcus isolates were incubated for 72 h). For yeast strains, the incubation temperature and time were 35° C. and 24-48 h, respectively, and the inoculum size was 0.5-2.5×10^3 CFU/ml. For filamentous strains, the inoculum size was 0.4-5×10^4 CFU/ml, and the incubation time was strain and drug specific. RPMI 1640 was the test medium throughout, with the exception of the use of YNB for Cryptococcus. Inhibition endpoints for compound 1A were recorded at 50% and 100% after both 24 h and 48 h incubation; caspofungin results against Aspergillus strains were read as minimum effective concentrations (MEC), the lowest concentration that leads to small, rounded, compact growth as compared to the confluent growth of the control.

[24] = tested on: C. albicans SC5314; assay: In vitro activity (MIC) against the infecting strain, Example 18; assay type: cell-based, Candida albicans; conditions: Candida albicans, minimum effective concentration, read-out: MIC read as MEC
[25] = tested on: Candida albicans SC5314; assay: Disseminated candidiasis in immunocompromised murine model (BALB/c mice): tissue fungal burden; assay type: in vivo; conditions: Experiment I; 0.35 mg/kg i.v., 7 days
[26] = individual C. albicans strain with elevated MICs to non-polyene comparators (Table 22), listed as Cas
[27] = individual C. parapsilosis strain with elevated MICs to non-polyene comparators (Table 22), in µg/mL

Q: How did the “MIC Range” value ([1]; Fluconazole-resistant C. albicans n = 7) turn out when CC[C@H](C)C[C@H](C)CCCCCCCCC(=O)N[C@H]1C[C@@H](O)[C@@H](NCCN)NC(=O)[C@@H]2[C@@H](O)CCN2C(=O)[C@H]([C@H](O)CCN)NC(=O)[C@H]([C@H](O)[C@@H](O)c2ccc(O)cc2)NC(=O)[C@@H]2C[C@@H](O)CN2C(=O)[C@H]([C@@H](C)O)NC1=O [Caspofungin, caspofungin] was run?
A: The value was 0.125-2.

Q: What about the “MIC Range” value ([1]; Fluconazole-susceptible C. albicans n = 13) of the same compound?
A: The value was 0.125-0.25.

Q: And the MIC50 ([1]; Fluconazole-susceptible C. albicans n = 13, inhibits 50% of strains)?
A: Its MIC50 is 0.25 µg/mL (≈ 0.229 µM).

Q: What about the MIC90 ([1]; Fluconazole-susceptible C. albicans n = 13, inhibits 90% of strains) of the same compound?
A: Its MIC90 is 0.25 µg/mL (≈ 0.229 µM).

Q: What about the MIC [1, 26] of the same compound?
A: The MIC was 1 (2×) and 2.

Q: And the “MFC Range” value ([2]; Fluconazole-susceptible C. albicans n = 13, in µg/mL)?
A: Its value is 0.5-32.

Q: And the MFC50 ([2]; Fluconazole-susceptible C. albicans n = 13, kills 50% of strains)?
A: Its MFC50 is 0.25 µg/mL (≈ 0.229 µM).

Q: And the MFC90 ([2]; Fluconazole-susceptible C. albicans n = 13, kills 90% of strains)?
A: The MFC90 was 2 µg/mL (≈ 1.83 µM).

Q: What about the MFC [2, 26] of the same compound?
A: Its MFC is >32 (2×) and 32.

Q: What about the MFC50 ([3]; C. krusei, kills 50% of strains) of the same compound?
A: The MFC50 was 2 µg/mL (≈ 1.83 µM).

Q: And the MFC90 ([3]; C. krusei, kills 90% of strains)?
A: The MFC90 was 8 µg/mL (≈ 7.32 µM).

Q: What about the MFC ([3]; individual C. krusei strain with elevated MICs to non-polyene comparators (Table 22)) of the same compound?
A: Its MFC is > 32 µg/mL.

Q: And the “MIC Range” value ([4]; C. parapsilosis strains, in µg/mL)?
A: Its value is 0.25-2.

Q: And the MIC50 ([4]; C. parapsilosis, inhibits 50% of strains)?
A: Its MIC50 is 0.5 µg/mL (≈ 0.457 µM).

Q: And the MIC90 ([4]; C. parapsilosis, inhibits 90% of strains)?
A: Its MIC90 is 2 µg/mL (≈ 1.83 µM).

Q: And the MIC [4, 27]?
A: The MIC was 2.

Q: What about the MFC50 ([5]; C. parapsilosis, kills 50% of strains) of the same compound?
A: The MFC50 was > 32 µg/mL.

Q: And the MFC90 ([5]; C. parapsilosis, kills 90% of strains)?
A: Its MFC90 is > 32 µg/mL.

Q: And the MFC [5, 27]?
A: The MFC was >32.

Q: What about the MFC50 ([6]; kills 50% of strains) of the same compound?
A: The MFC50 was 32 µg/mL (≈ 29.3 µM).

Q: What about the MFC90 ([6]; kills 90% of strains) of the same compound?
A: Its MFC90 is > 32 µg/mL.

Q: And the “MIC Range” value ([7]; in µg/mL)?
A: The value was 0.06-16.

Q: What about the MIC50 ([7]; inhibits 50% of strains) of the same compound?
A: Its MIC50 is 0.5 µg/mL (≈ 0.457 µM).

Q: What about the MIC90 ([7]; inhibits 90% of strains) of the same compound?
A: The MIC90 was 2 µg/mL (≈ 1.83 µM).

Q: And the MFC50 ([8]; kills 50% of strains)?
A: Its MFC50 is 16 µg/mL (≈ 14.6 µM).

Q: And the MFC90 ([8]; kills 90% of strains)?
A: The MFC90 was > 32 µg/mL.

Q: What about the “MIC Range” value ([9]; Cr. neoformans strains, 72 h, in µg/mL) of the same compound?
A: Its value is 1-16.

Q: What about the MIC50 ([9]; Cr. neoformans, inhibits 50% of strains) of the same compound?
A: The MIC50 was 16 µg/mL (≈ 14.6 µM).

Q: What about the MIC90 ([9]; Cr. neoformans, inhibits 90% of strains) of the same compound?
A: Its MIC90 is 16 µg/mL (≈ 14.6 µM).

Q: And the MFC50 ([10]; kills 50% of strains)?
A: Its MFC50 is > 32 µg/mL.

Q: What about the MFC90 ([10]; kills 90% of strains) of the same compound?
A: Its MFC90 is > 32 µg/mL.

Q: What about the “MIC Range” value ([11]; in µg/mL) of the same compound?
A: The value was 0.125-8.

Q: What about the MIC50 ([11]; inhibits 50% of strains) of the same compound?
A: The MIC50 was 0.25 µg/mL (≈ 0.229 µM).

Q: What about the MIC90 ([11]; inhibits 90% of strains) of the same compound?
A: Its MIC90 is 0.5 µg/mL (≈ 0.457 µM).

Q: And the “MIC Range” value ([12]; in µg/mL)?
A: Its value is 0.25-1.

Q: And the MIC50 ([12]; inhibits 50% of strains)?
A: Its MIC50 is 0.25 µg/mL (≈ 0.229 µM).

Q: What about the MIC90 ([12]; inhibits 90% of strains) of the same compound?
A: The MIC90 was 0.5 µg/mL (≈ 0.457 µM).

Q: What about the MFC50 ([13]; kills 50% of strains) of the same compound?
A: Its MFC50 is > 32 µg/mL.

Q: And the MFC90 ([13]; kills 90% of strains)?
A: Its MFC90 is > 32 µg/mL.

Q: And the “MIC Range” value ([14]; in µg/mL)?
A: Its value is 0.125-2.

Q: And the MIC50 ([14]; inhibits 50% of strains)?
A: The MIC50 was 0.125 µg/mL (≈ 0.114 µM).

Q: What about the MIC90 ([14]; inhibits 90% of strains) of the same compound?
A: Its MIC90 is 0.25 µg/mL (≈ 0.229 µM).

Q: What about the “MIC Range” value ([15]; in µg/mL) of the same compound?
A: Its value is 0.25-1.

Q: And the MIC50 ([15]; inhibits 50% of strains)?
A: The MIC50 was 0.25 µg/mL (≈ 0.229 µM).

Q: What about the MIC90 ([15]; inhibits 90% of strains) of the same compound?
A: Its MIC90 is 0.5 µg/mL (≈ 0.457 µM).

Q: And the MFC50 ([16]; kills 50% of strains)?
A: The MFC50 was > 32 µg/mL.

Q: And the MFC90 ([16]; kills 90% of strains)?
A: Its MFC90 is > 32 µg/mL.

Q: And the MFC50 ([17]; kills 50% of strains)?
A: The MFC50 was > 32 µg/mL.

Q: And the MFC90 ([17]; kills 90% of strains)?
A: Its MFC90 is > 32 µg/mL.

Q: And the “MIC Range” value ([18]; in µg/mL)?
A: The value was 1-64.

Q: What about the MIC50 ([18]; inhibits 50% of strains) of the same compound?
A: The MIC50 was 32 µg/mL (≈ 29.3 µM).

Q: And the MIC90 ([18]; inhibits 90% of strains)?
A: The MIC90 was 32 µg/mL (≈ 29.3 µM).

Q: What about the “MFC Range” value ([19]; in µg/mL) of the same compound?
A: Its value is >32.

Q: And the MFC50 ([19]; kills 50% of strains)?
A: Its MFC50 is > 32 µg/mL.

Q: What about the MFC90 ([19]; kills 90% of strains) of the same compound?
A: The MFC90 was > 32 µg/mL.

Q: And the MFC Range [20]?
A: The MFC Range was > 32 µg/mL.

Q: What about the MFC50 ([20]; kills 50% of strains) of the same compound?
A: Its MFC50 is > 32 µg/mL.

Q: And the MFC90 ([20]; kills 90% of strains)?
A: Its MFC90 is > 32 µg/mL.

Q: And the MIC50 ([21]; inhibits 50% of strains)?
A: Its MIC50 is 4 µg/mL (≈ 3.66 µM).

Q: And the MIC90 ([21]; inhibits 90% of strains)?
A: The MIC90 was 32 µg/mL (≈ 29.3 µM).

Q: And the MFC50 ([22]; kills 50% of strains)?
A: Its MFC50 is > 32 µg/mL.

Q: And the MFC90 ([22]; kills 90% of strains)?
A: The MFC90 was > 32 µg/mL.

Q: And the MIC [23]?
A: The MIC was 0.25 µg/mL (≈ 0.229 µM).

Q: What about the MIC [24] of the same compound?
A: The MIC was 0.25 µg/mL (≈ 0.229 µM).

Q: What about the “Brain tissue fungal burden, Mean log CFUs ± the standard deviation” value [25] of the same compound?
A: The value was 1.22 ± 1.87 log CFUs.

Q: And the “Kidney tissue fungal burden, Mean log CFUs ± the standard deviation” value [25]?
A: Its value is 3.22 ± 1.26 log CFUs.
